For one experiment, the system named is RPA. The experiment is described as follows: Western blot of endogenous RPA34 levels. The format is cell-based. As to conditions: western blot for RPA34. Here is the method:
Referring now to FIG. 18. Blot showing Endogenous Levels of RPA. Each cell line analyzed were plated (3×10^6) in 10 cm dishes and allowed to adhere overnight. Following a 5 ml PBS wash the cells were scraped into 100 μl of RIPA buffer. Cell extracts (40 μg) were loaded onto 10% SDS-PAGE gels, transferred to nitrocellulose membranes and probed for the presence of RPA34. Purified RPA was used as a positive control while GAPDH was probed for a loading control.

The target of experiment [1] is T1, full-length heterotrimeric RPA (Homo sapiens, UniProt P27694).
T1 construct: Human full-length, un-tagged heterotrimeric RPA (RPA) was purified as previously describe; made in house
T1 sequence (P27694 whole entry): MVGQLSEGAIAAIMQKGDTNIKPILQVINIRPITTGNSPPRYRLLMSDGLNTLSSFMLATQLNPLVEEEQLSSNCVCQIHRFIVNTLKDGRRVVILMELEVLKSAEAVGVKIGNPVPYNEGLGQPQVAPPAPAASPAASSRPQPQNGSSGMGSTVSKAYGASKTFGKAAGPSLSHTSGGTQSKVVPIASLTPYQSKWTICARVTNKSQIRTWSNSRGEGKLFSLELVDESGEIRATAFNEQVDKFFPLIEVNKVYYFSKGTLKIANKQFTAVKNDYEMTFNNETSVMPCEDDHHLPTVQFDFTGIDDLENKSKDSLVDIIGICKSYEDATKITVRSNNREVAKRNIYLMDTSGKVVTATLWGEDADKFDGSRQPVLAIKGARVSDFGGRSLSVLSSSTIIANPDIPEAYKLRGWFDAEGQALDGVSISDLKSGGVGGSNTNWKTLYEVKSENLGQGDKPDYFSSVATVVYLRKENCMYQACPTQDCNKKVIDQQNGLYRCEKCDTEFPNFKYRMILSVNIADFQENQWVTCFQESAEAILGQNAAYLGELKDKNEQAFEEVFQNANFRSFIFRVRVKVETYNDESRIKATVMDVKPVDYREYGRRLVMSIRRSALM
T1 sequence (P15927 whole entry partner): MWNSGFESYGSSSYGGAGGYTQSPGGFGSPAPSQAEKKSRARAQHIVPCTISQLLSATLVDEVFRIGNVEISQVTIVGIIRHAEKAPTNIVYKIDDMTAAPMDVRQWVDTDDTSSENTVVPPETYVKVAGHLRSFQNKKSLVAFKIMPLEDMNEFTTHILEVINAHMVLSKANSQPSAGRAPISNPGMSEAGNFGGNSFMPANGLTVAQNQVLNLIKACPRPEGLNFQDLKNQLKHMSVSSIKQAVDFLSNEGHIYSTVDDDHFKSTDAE
T1 sequence (P35244 whole entry partner): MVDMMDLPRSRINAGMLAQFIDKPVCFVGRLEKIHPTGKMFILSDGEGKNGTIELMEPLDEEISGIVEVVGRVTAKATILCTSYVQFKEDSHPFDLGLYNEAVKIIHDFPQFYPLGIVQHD
The experiment can be described thus: Reversibility of full-length RPA inhibition: dialysis, then EMSA. The format is binding. As to conditions: overnight dialysis, then EMSA with 34-base DNA. Here is the method: Considering the differential inhibition observed between the anhydride and halo esters with respect to specificity, experiments were carried out to determine if the isoborneol halo-esters inhibited full-length RPA in an irreversible fashion. Full-length RPA was mixed with MCI13E or vehicle control and the reaction mixtures were then dialyzed overnight. Referring now to FIG. 5. Gel showing irreversible inactivation of full-length heterotrimeric RPA by MCI13E. Incubation of RPA with MCI13E, dialysis and recovery was performed as described for FIG. 3. DNA binding activity of the resulting protein was assessed by EMSA using a 5′-[^32P]-ss 34-base DNA as described in “Methods”. Lanes 1-4 pre-dialysis, lanes 5 and 6 post dialysis. […] In fact, the degree of inhibition was similar to that observed for the MCI13E treated RPA before dialysis (FIG. 5 lanes 3 and 4). […] This activity is consistent with MCI13E and F and their reaction with RPA serving as a pharmacodynamic marker of RPA inhibition or as a biomarker for RPA expression and activity.
In order to assess the reversibility of select SMIs, the indicated SMI was pre-incubated with RPA or the DBD-A/B construct for 30 minutes at room temperature. […] The resulting protein was recovered and concentration determined by Bradford analysis. […]
In general terms: In EMSA bound probe runs differently from free probe, usually more slowly.

For a further experiment, the system named is A2780 cells. The experiment is described as follows: CCK-8 cell viability assay, A2780. The format is cell-based. The following applies: 24 hours of treatment. Here is the method:
(§1) Referring now to FIG. 13A. Cell Viability and Apoptosis of Ovarian and p53 null Lung Cancer Cell Lines. A) Ovarian cancer cell line A2780 and the p53 null lung cancer cell line, H1299, were treated with log dosing of MCI13E and viability analyzed via CCK-8 metabolic assay as described in Methods. Data is presented as cell survival which was determined as a percent of the untreated control cells and represents the average and standard deviation of triplicate experiments Referring now to FIG. 13B.
Ovarian cancer cell line, A2780, cells are difficult to use for crystal violet analysis due to their enhanced sensitivity to treatment. Therefore, the cell counting kit-8 (CCK) was used to determine the viability of A2780 cells in addition to the p53 null lung cancer cell line H1299, following a 24 hour treatment with log dosing of SMI. Cells were plated (1×10^5) in 24-well dishes and treated with inhibitor after 24 hours. After treatment media was aspirated and 1 ml of DMEM was added in addition to 100 μL of CCK-8 solution. Absorbance at 450 nm was measured over 4 hours in a SpectraMax M5 plate reader and values are presented as the percent untreated control at the two hour time point for three separate plate replicates each containing three assays per plate.

The subject of experiment [2] is NSCLC cell lines A549 and H460. The experiment can be described thus: Apoptosis by Annexin V/PI staining, NSCLC cell lines. Type of experiment: cell-based. As to conditions: 48 hours. Here is the method: Referring now to FIG. 11A. Gel showing effect of MCI13E on DNA-RPA binding. […] Cytotoxicity was analyzed via crystal violet analysis as described in “methods” 48 hours following MCI13E treatment. Data represent the average and standard deviation of four replicate experiments with each replicate containing triplicate determinations and the circles represent data from H460 cells and squares A549 cells. Referring now to FIG. 11C. Graph of MCI13E induced death via apoptosis in NSCLC cell lines. Cell were treated with the indicated concentrations of MCI13E for 48 hours and analyzed for the induction of apoptosis via Annexin V/PI staining Referring now to FIG. 11D. Graph of cell survival as a function of [MCI1EC]. Percent survival was calculated for each cell line using untreated cells as a control. […]
Flow Cytometry—After determining the SMI cytotoxicity, H460, A549 and H1299 lung cancer cell lines were analyzed for apoptosis using the Annexin V-FITC/Propidium Iodide (PI) Vybrant® Apoptosis Assay kit (Invitrogen, Gaithersburg, Md.). […] Following treatment, both adherent and non-adherent cells were collected, processed via the manufacturer's protocol (Invitrogen) and analyzed on a FACScan flow cytometer (Becton Dickson, San Jose, Calif.). Data was analyzed using WinDMI software (The Scripps Research Institute, Can Diego, Calif.) and results are presented as a percentage of control (untreated cells).

The subject of a further experiment is A549 cells. The experiment can be described thus: Cell cycle analysis by PI staining, A549. The format is cell-based. The following applies: A549, increasing doses. On the procedure:
Referring now to FIG. 12A and FIG. 12B. Cell Cycle Analysis of Lung Cancer Cell Lines Following Treatment with MCI13E. A549. Referring now to FIG. 12C, and FIG. 12D. H460 were treated as indicated and analyzed for the cell cycle distribution using PI staining and flow cytometry. Quantification of data following 6 hours and 12 hour treatment with 10 and 20 μM MCI13E was performed for both A549 (FIG. 12E) and H460 (FIG. 12F) Data presented represent the averages of three replicate experiments.
Cell cycle analysis was also performed on the three lung cancer cell lines using PI staining to identify the potential arrest resulting from treatment with SMIs. Briefly, cells were plated in 6-well dishes (2×10^5 cells total) and treated for 6 or 12 hours with increasing concentration of inhibitor. Adherent and non-adherent cells were collected, washed twice with PBS containing 2% bovine serum albumin (BSA), resuspended in 70% cold EtOH and incubated overnight at −20° C. Cells were again collected and stained with PI (1 μg/mL) and RNaseA (25 μg/mL) for 30 min. at 37° C. followed by 1.5 hours at 4° C. in the dark. Flow cytometry was performed as above and data were analyzed on a histogram with events plotted against the FL2-A parameter. Cell cycle distribution was analyzed using the ModFit software and data presented represents three independent trials.

The subject of the next experiment is H1299 cells. The experiment is described as follows: Apoptosis by Annexin V/PI staining, H1299. Type of experiment: cell-based. As to conditions: H1299, Annexin V and propidium iodine staining. Here is the method: as §1
Flow Cytometry—After determining the SMI cytotoxicity, H460, A549 and H1299 lung cancer cell lines were analyzed for apoptosis using the Annexin V-FITC/Propidium Iodide (PI) Vybrant® Apoptosis Assay kit (Invitrogen, Gaithersburg, Md.). Cells were plated in 6-well dishes (2×10^5 cells total), treated for 24 (H1299) or 48 (H460 and A549) hours with increasing concentrations of SMI. Following treatment, both adherent and non-adherent cells were collected, processed via the manufacturer's protocol (Invitrogen) and analyzed on a FACScan flow cytometer (Becton Dickson, San Jose, Calif.). Data was analyzed using WinDMI software (The Scripps Research Institute, Can Diego, Calif.) and results are presented as a percentage of control (untreated cells).

These results are taken from US9757350B2, “Small molecule inhibitors of replication protein A that also act synergistically with cisplatin” (Indiana University Research and Technology Corp., priority 2010, dated 2017).

SMILES strings stand for the structures.

For the compound `CC1(C)C2CCC1(C)C(OC(=O)CBr)C2` (racemic) [MCI13E, (+/−)-Isobornyl bromoacetate], the “Levels of endogenous RPA” value in the experiment on RPA is “No change in the levels of endogenous RPA”. Besides, the “Reversibility of full-length RPA inhibition” value in experiment [1] is listed as “inhibition was not reversed by dialysis”. The IC50 with A2780 cells was approximately 1000 nM. Besides, in experiment [2], the “Mode of cell death” value is given as “induces death via classical apoptosis”. In the experiment with A549 cells, the Cell cycle distribution result is “greater proportion of cells in the G1 phase”. The Induction of apoptosis entry with H1299 cells is listed as “indicative of the induction of apoptosis”.

As usually defined, the IC50 is the concentration that inhibits the measured activity by half. Low readings indicate greater potency in that assay, high ones weaker potency in that assay.
